As usually defined, the IC50 is the concentration needed to halve the response being measured. A high value points to lower potency.

Converted amounts (≈) assume the structure as drawn.

For the assay, the system named is P388. The experiment in a line: Cytotoxicity against mouse P388 cells. Type of assay: functional, cell-based.
The compound `CC/C=C/C(CC)C/C(=C/C(O)(CC)CC(O)(/C=C/C(=O)O)CC)CC` (centres undefined) came in with a half-inhibitory concentration (IC50) of 10 µg/mL (≈ 27.3 µM). Turning to `CC/C=C/C(CC)CCCC1(CC)C[C@H](CC)[C@H](CC(=O)O)OO1` (relative stereo), the midpoint of inhibition, the IC50, lay at 0.5 µg/mL (≈ 1.47 µM). As for `CC/C=C/C(CC)CCCC1(CC)C[C@H](CC)[C@H](CC(=O)OC)OO1` (relative stereo), half-maximal inhibition (IC50) required 5 µg/mL (≈ 14.1 µM). Against the preceding compound, the IC50 is about 10-fold higher.

`CC/C=C/C(CC)C/C(C)=C/C(O)(CC)CC(O)(/C=C/C(=O)O)CC` (centres undefined) had an IC50 of 10 µg/mL (≈ 28.4 µM).

The record behind these values is ChEMBL document CHEMBL1147388, “Three new cytotoxic metabolites from the marine sponge Plakortis halichondrioides” (J Nat Prod, 1993).
